One data set has as its target T1, human Phgdh (Homo sapiens, UniProt O43175).
T1 construct: purchased BPS bioscience 71079
T1 sequence (O43175 1-533): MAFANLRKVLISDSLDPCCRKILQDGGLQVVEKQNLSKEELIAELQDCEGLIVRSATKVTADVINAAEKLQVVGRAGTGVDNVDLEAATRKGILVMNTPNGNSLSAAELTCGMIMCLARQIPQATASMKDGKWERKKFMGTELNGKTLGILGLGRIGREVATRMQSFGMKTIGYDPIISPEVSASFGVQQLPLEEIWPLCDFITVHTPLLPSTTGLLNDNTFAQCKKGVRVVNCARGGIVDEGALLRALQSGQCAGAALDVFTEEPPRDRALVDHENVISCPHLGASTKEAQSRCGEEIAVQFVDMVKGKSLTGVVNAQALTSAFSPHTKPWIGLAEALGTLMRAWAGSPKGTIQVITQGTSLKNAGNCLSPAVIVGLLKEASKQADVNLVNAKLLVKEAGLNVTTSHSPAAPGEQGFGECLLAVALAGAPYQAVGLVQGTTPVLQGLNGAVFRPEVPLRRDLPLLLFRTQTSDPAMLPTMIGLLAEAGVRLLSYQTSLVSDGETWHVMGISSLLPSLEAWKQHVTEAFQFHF
Briefly: Phgdh activity assay (colorimetric kit, NADH at 450 nm). In kind it is biochemical. The note with it: for Phgdh activation (in words): 25 μM compound. How it is done:
Phgdh enzyme activity upon drug treatment was tested using human Phgdh (BPS bioscience, 71079) and a specific colorimetric Phgdh activity kit (Biovision, K569). The Phgdh inhibitor Disulfiram [Spillier et al. (2019) Sci Rep. 9, 4737], served as […].
Briefly, Human Phgdh enzyme was diluted in assay buffer at a concentration of 0.38 mg/mL. Next, 5 μl of this Phgdh enzyme solution and 5 μL of the compounds in 5% DMSO and assay buffer was added (to wells of flat bottom 96-well plate). Subsequently, 40 μl Phgdh assay buffer (Biovision) and 50 μl Phgdh reaction mix (prepared as described in the protocol of the Phgdh assay kit K569, Biovision) was added. The final amount of enzyme per reaction was 0.35 μM. Afterwards, absorbance at 450 nm, indicative for the amount of NADH generated, was measured over time. NADH is one of the end products of the reaction. In between measurements, the plate was incubated at 37° C., protected from light.

In another data set the test system is Scn1Lab mutant larvae. As to the kind of experiment: Zebrafish model of Dravet syndrome, locomotor behavioural assay. The class given is in vivo. The note with it: 6 dpf larvae, MTC concentration in 0.1% DMSO, 2 h incubation, normalized to VHC-treated mutants. How it is done:
6 dpf Scn1Lab mutant larvae (selected by their darker appearance, lack of a swim bladder and slight curvature of the body on 6 dpf) and WT larvae were arrayed in a 96-well plate (one larva per well) and treated with 100 μl VHC (0.1% DMSO) or compound (MTC concentration in 0.1% DMSO). After incubation at 28° C. on a 14/10 h light/dark cycle for 2 h, the plates were immediately placed in an enclosed tracking device (ZebraBox Viewpoint, France) and chamber habituation for 30 min. The locomotor activity of the larvae were evaluated during 10 min under dark conditions and quantified by the lardist parameter (total distance in large movements) and plotted in cm (ZebraLab™ software, Viewpoint, Lyon, France). Data was collected from 3-4 larvae per treatment condition. The locomotor data were analysed by normalizing the locomotor activity of treated larvae against VHC-treated Scn1Lab mutant larvae.

For data set [1], the system named is EKP induced seizures in zebrafish larvae. Briefly: Zebrafish drug resistant epilepsy model: ethyl ketopentenoate (EKP), locomotor tracking. In kind it is in vivo. The settings on record: for effect on EKP induced seizures (locomotor activity, actinteg units): 7 dpf larvae, compound at MTC (CQ 3 μM, CH 3.125 μM, PBT-1033 6 μM) 2 h before 300 μM EKP; for activity after EKP exposure (locomotor activity relative to EKP only): 1 μM compound, 300 μM EKP, 30 min recording. The method, then:
Larvae (7 dpf) in 100 μl VHC were arrayed individually in a 96-well plate (tissue culture plate, at bottom, Falcon, USA) and kept in the light at 28° C. Two-hours before tracking compound (clioquinol (CQ), chloroxine (CH), PBT-1033) and/or inhibitor (disulfiram (DS), CBR) was added at their MTC to the larvae and afterwards the 96-well plates were placed in darkness at 28° C. for 2 hours. Just prior to tracking 100 µl of VHC or EKP stock solution was added to each well to obtain a EKP concentration of 300 μM. The plates were placed in an automated video tracking device (ZebraBox™ apparatus; Viewpoint, Lyon, France) and the locomotor behavior of the larvae was monitored for 40 min in the dark at 28° C. Locomotor activity was quantified using ZebraLab™ software (Viewpoint, Lyon, France) and expressed in “actinteg” units per 5-min interval. For each larvae, 30 min of tracking data after the effect of EKP was initiated was used. The actinteg value is defined as the sum of all image pixel changes detected during the time window.
Locomotor activity was quantified using ZebraLab™ software (Viewpoint, Lyon, France) and expressed in mean “actinteg” units per 5-min+/−SEM during a 30 min recording interval relative to EKP only. Statistical analysis: one-way ANOVA with Dunnett's multiple comparison test. A statistical difference is indicated by: ****p<0.0001. For each condition n=10 larvae were used and the experiment was performed two times (n total=20 per condition).

For data set [2] the following is noted: cited from earlier work.
For data set [3] the following is noted: cited from earlier work. This is another data set of the same source.
The subject of data set [4] is 6-Hz (44 mA) psychomotor seizures in NMRI mice. Briefly: Mouse 6-Hz (44 mA) psychomotor seizure model. In kind it is in vivo. The note with it: i.p. injection 60 min before corneal stimulation. How it is done: Male NMRI mice (weight 25-30 g) were acquired from Charles River Laboratories (France) and housed in polyacrylic cages under a 14/10-hour light/dark cycle at 21° C. The animals were fed a pellet diet and water ad libitum, and were allowed to acclimate for 1 week before experimental procedures were conducted. Prior to the experiment, mice were isolated in polyacrylic cages with a pellet diet and water ad libitum for habituation overnight in the experimental room, to minimize stress. The antiseizure activity of compounds was investigated in the mouse 6-Hz (44 mA) psychomotor seizure model as described before [Copmans et al (2018) ACS Chem Neurosci. 9, 1652-1662.]. In brief, 500 μl (injection volume was adjusted to the individual weight) of VHC (0.5% sodiumcarboxymethylcellulose (NaCMC)/Tween80 in 0.9% NaCl) or treatment (valproate or clioquinol dissolved in VHC) was i.p. injected in NMRI mice and after 60 min psychomotor seizures were induced by corneal electrical stimulation (6 Hz, 0.2 ms rectangular pulse width, 3 s duration, 44 mA) using an ECT Unit 5780 (Ugo Basile, Comerio, Italy). Seizure durations were measured during the experiment by experienced researchers, familiar with the different seizure behaviours. In addition, seizure durations were determined by blinded video analysis to confirm or correct the initial observations. Data are expressed as mean±SD.

Data set [5] deals with cAMP-transporting ABC pumps. The note with it: possible targets ABCC4 and ABCC11; cited from earlier work.
The conditions of data set [6]: cited from earlier work. This is another data set of the same source.

Entries after “also recorded” stand apart in the source; their conditions may differ. Bounds are passed on as bounds.

Turning to `Oc1ccc(Cl)c2cccnc12` [cloxyquin, 5-Chloro-8-quinolinol], the “Phgdh activation (in words)” value at human Phgdh is “activity comparable to clioquinol”.

On to `Oc1c(Cl)cc(Cl)c2cccnc12` [chloroxine], for which the “reduction of epileptiform locomotor activity of Scn1Lab mutant group” value in the data set on Scn1Lab mutant larvae is greater than 60%. Further, the “effect on EKP induced seizures (locomotor activity, actinteg units)” value in data set [1] was “significantly reduced EKP induced seizures”.

Regarding `O=C(Oc1cccc2cccnc12)c1ccccc1` [benzoxyquine], at human Phgdh, the “Phgdh activation (in words)” value is “could not activate Phgdh”.

Turning to `Oc1c(I)cc(Cl)c2cccnc12` [clioquinol], the “dose with no apparent adverse effects” value in data set [2] (Alzheimer clinical trial, for weeks (10 mg/kg/day)) is listed as 750 mg/day. The “dose with dose-limiting neurotoxicity and abdominal pain” value in data set [2] (humans (42.5 mg/kg/day)) is reported as 3200 mg/day. Moreover, the “dose received by patients without toxicity” value in data set [2] (humans, per day (~50 mg/(kg day))) is 3.5 g. The “dose that did not produce toxicity in animals” value in data set [3] (animals, over 30 days, in all but one study) was 100 mg/(kg day). In addition, the “dose with toxicity observed in a week” value in data set [3] (dogs, in a week) is listed as 400 mg/(kg day). In addition, in data set [3] (dogs, treated for over a month), the “dose with neurological toxicity in dogs” value is reported as “exceeding 200 mg/(kg day)”. In addition, the seizure duration result in data set [4] is listed as “trend towards reduced seizure duration”. Moreover, the “effect on cAMP-transporting ABC pumps” value in data set [5] is “inhibits”. In data set [1], the “activity after EKP exposure (locomotor activity relative to EKP only)” value was “superior activity” and the “effect on EKP induced seizures (locomotor activity, actinteg units)” value is “significantly reduced EKP induced seizures”. Moreover, the “dose/concentration ratio in humans” value in data set [6] (doses of 250 or 500 mg) is reported as 0.64-1.4. The “concentrations of free clioquinol in humans relative to hamsters (mean)” value in data set [6] (in vivo) is listed as 33 times. In addition, the “effect on the oxido-reduction reaction toward NADH generation” value at human Phgdh (compound itself, data not shown) was “does not affect”.

`O=C(O)c1cc(O)c2ccc(Cl)cc2n1` [7-chloro-kynurenic acid]: the “activity after EKP exposure (locomotor activity relative to EKP only)” value in data set [1] was “not Active”. The “Phgdh activation (in words)” value on human Phgdh was “could not activate Phgdh; also recorded: no induced activation of PHGDH”.
